Patent US20230183239A1, “ECTONUCLEOTIDE PYROPHOSPHATASE-PHOSPHODIESTERASE 1 (ENPP-1) INHIBITORS AND USES THEREOF” (AbbVie Inc., priority 2017, published 2023)

What was measured:
Type in all cases: biochemical
[1] = target: T1, ENPP1 (Homo sapiens, UniProt P22413); experiment: ENPP1 enzyme assay with AMP-pNP substrate (hydrolysis of ATP analog); details: AMP-pNP substrate (ATP analog); Ki from IC50 by Cheng-Prusoff; read-out: ENPP1 Inhibition _AMP-pNP: Ki
T1 sequence (P22413 1-925): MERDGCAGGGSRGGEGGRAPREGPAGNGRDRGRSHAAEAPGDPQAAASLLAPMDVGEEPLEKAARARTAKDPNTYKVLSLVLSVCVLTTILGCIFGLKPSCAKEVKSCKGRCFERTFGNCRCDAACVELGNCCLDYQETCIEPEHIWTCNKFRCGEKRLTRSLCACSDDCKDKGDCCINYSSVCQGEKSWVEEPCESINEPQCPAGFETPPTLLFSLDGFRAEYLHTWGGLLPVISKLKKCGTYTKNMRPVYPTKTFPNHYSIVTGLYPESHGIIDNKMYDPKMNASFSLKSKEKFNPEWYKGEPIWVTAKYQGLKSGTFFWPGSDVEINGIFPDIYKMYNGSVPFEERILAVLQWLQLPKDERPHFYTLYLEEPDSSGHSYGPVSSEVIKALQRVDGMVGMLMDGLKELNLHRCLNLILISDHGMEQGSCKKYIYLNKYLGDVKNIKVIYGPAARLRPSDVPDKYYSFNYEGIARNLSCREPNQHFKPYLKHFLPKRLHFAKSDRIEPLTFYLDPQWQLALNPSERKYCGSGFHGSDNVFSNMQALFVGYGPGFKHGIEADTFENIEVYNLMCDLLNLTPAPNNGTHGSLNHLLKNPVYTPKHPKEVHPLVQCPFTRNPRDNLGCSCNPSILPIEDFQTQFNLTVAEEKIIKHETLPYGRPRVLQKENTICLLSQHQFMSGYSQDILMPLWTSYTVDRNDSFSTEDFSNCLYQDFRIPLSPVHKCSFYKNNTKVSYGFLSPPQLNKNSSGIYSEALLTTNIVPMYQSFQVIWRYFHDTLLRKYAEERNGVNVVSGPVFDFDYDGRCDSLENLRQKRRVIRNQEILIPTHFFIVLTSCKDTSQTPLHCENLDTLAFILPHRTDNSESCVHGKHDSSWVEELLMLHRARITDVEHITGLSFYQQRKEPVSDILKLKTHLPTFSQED
Outline: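 Human recombinant ENPP1 (60 ng/well) with 300 µM AMP-pNP in 50 mM Tris-HCl pH 8.5, 250 mM NaCl, 0.5 mM CaCl2, 1 µM ZnCl2, 0.1% DMSO, 20 min at 37 °C.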

[2] = target: T1, ENPP1; experiment: Substrate selectivity ratio, inhibition of cGAMP hydrolysis versus ATP hydrolysis; details: ratio Ki AMP-pNP / Ki cGAMP
Procedure: The selectivity ratios for inhibition of cGAMP hydrolysis versus ATP hydrolysis were then calculated as follows: […]

[3] = target: T1, ENPP1; experiment: Indirect quantitation of 2',3'-cGAMP hydrolysis (AMP-Glo Assay kit); details: cGAMP substrate; Ki from IC50 by Cheng-Prusoff; read-out: ENPP1 Inhibition -cGAMP: Ki

Ki [1] [nM] | Substrate Selectivity: Ki_AMP-pNP/Ki_cGAMP [2] | Ki [3] [nM] | SMILES
100 to 1000 | >103 | < 100 | COc1ccc2c(Oc3ccc4c(c3)CCN4S(N)(=O)=O)ccnc2c1 [Example 404, 5-((7-methoxyquinolin-4-yl)oxy)indoline-1-sulfonamide]
> 1000 | >45.9 | < 100 | COc1ccc2ncnc(NC(C)c3ccc(NS(N)(=O)=O)cc3)c2c1 (stereo not drawn) [Example 299, N-(4-(1-((6-methoxyquinazolin-4-yl)amino)ethyl)phenyl)sulfamide]
< 100 | 12.2 | < 100 | COc1cc2ncc(C#N)c(-c3ccc4c(c3)CN(S(N)(=O)=O)CC4)c2cc1OC [Example 149, 7-(3-cyano-6,7-dimethoxyquinolin-4-yl)-3,4-dihydroisoquinoline-2(1H)-sulfonamide]
< 100 | 11.9 | < 100 | COc1cc2nccc(N3CCc4cc(NS(N)(=O)=O)ccc43)c2cc1F [Example 72, N-(1-(6-fluoro-7-methoxyquinolin-4-yl)indolin-5-yl)sulfamide]
100 to 1000 | 28.2 | < 100 | COc1ccc2c(Oc3ccc(CS(N)(=O)=O)cc3)ccnc2c1 [Example 312, (4-((7-methoxyquinolin-4-yl)oxy)phenyl)methanesulfonamide]
> 1000 | >90.4 | 100 to 1000 | COc1ccc2c(-c3ccc(CN)cc3)c(C#N)cnc2c1 [Example 277, 4-(4-(aminomethyl)phenyl)-7-methoxyquinoline-3-carbonitrile]
100 to 1000 | 21.9 | < 100 | COc1cc2ncnc(-c3ccc4c(c3)CC(NS(N)(=O)=O)C4)c2cc1OC (stereo not drawn) [Example 122, N-(5-(6,7-dimethoxyquinazolin-4-yl)-2,3-dihydro-1H-inden-2-yl)sulfamide]
> 1000 | >35.9 | < 100 | COc1ccc2c(Oc3ccc4c(c3)CCCN4S(N)(=O)=O)ccnc2c1 [Example 319, 6-((7-methoxyquinolin-4-yl)oxy)-3,4-dihydroquinoline-1(2H)-sulfonamide]
> 1000 | 33.0 | < 100 | COc1cc2nccc(OC3CCC(NS(N)(=O)=O)C3)c2cc1OC (stereo not drawn) [Example 213, N-(3-((6,7-dimethoxyquinolin-4-yl)oxy)cyclopentyl)sulfamide]
100 to 1000 | 22.5 | < 100 | COc1ccc2c(NCc3ccc(NS(N)(=O)=O)cc3)ccnc2c1 [Example 267, N-(4-(((7-methoxyquinolin-4-yl)amino)methyl)phenyl)sulfamide]
100 to 1000 | >42 | < 100 | COc1ccc2c(-c3ccc4c(c3F)CN(S(N)(=O)=O)CC4)ccnc2c1 [Example 410, 8-fluoro-7-(7-methoxyquinolin-4-yl)-3,4-dihydroisoquinoline-2(1H)-sulfamide]

Continued, molecule first:

SMILES | Ki [1] [nM] | Substrate Selectivity: Ki_AMP-pNP/Ki_cGAMP [2] | Ki [3] [nM]
COc1ccc2c(NCc3ccc(S(N)(=O)=O)cc3)ccnc2c1 [Example 293, 4-(((7-methoxyquinolin-4-yl)amino)methyl)benzenesulfonamide] | < 100 | 17.9 | < 100
COc1cc2ncc(C#N)c(-c3ccc(CN(C4CC4)S(N)(=O)=O)cc3)c2cc1OC [Example 290, N-(4-(3-cyano-6,7-dimethoxyquinolin-4-yl)benzyl)-N-cyclopropylsulfamide] | 100 to 1000 | 17.1 | < 100
COc1cc2ncnc(N3CCC(CCNS(N)(=O)=O)CC3)c2cc1F [Example 206, N-(2-(1-(6-fluoro-7-methoxyquinazolin-4-yl)piperidin-4-yl)ethyl)sulfamide] | 100 to 1000 | 39.6 | < 100
COc1cc2nccc(Oc3ccc(S(N)(=O)=O)cc3)c2cn1 [Example 393, 4-((7-methoxy-1,6-naphthyridin-4-yl)oxy)benzenesulfonamide] | 100 to 1000 | 51 | < 100
COc1ccc2c(N3CCc4cc(N(C)S(N)(=O)=O)ccc43)ccnc2c1 [Example 418, N-(1-(7-methoxyquinolin-4-yl)indolin-5-yl)-N-methylsulfamide] | 100 to 1000 | >40 | < 100
COc1cc2ncc(C(N)=O)c(N3CCC(CCNS(N)(=O)=O)CC3)c2cc1OC [Example 19, 6,7-dimethoxy-4-(4-(2-(sulfamoylamino)ethyl)piperidin-1-yl)quinoline-3-carboxamide] | > 1000 | >95.8 | < 100
COc1ccc2c(Oc3ccc(NS(N)(=O)=O)cc3C#N)ccnc2c1 [Example 353] | > 1000 | >74 | 100 to 1000
COc1cc2nccc(-c3ccc(CN(O)C=O)cc3)c2cc1OC [Example 284, N-(4-(6,7-dimethoxyquinolin-4-yl)benzyl)-N-hydroxyformamide] | < 100 | 28.6 | < 100
COc1cc2ncnc(NC(C)c3ccc(NS(N)(=O)=O)cc3)c2cc1OC (stereo not drawn) [Example 140, N-(4-(1-((6,7-dimethoxyquinazolin-4-yl)amino)ethyl)phenyl) sulfamide] | 100 to 1000 | 25.1 | < 100
COc1ccc2c(-c3ccc(CNS(N)(=O)=O)cc3)ncnc2c1 [Example 226, N-(4-(7-methoxyquinazolin-4-yl)benzyl)sulfamide] | 100 to 1000 | 29.5 | < 100
COc1ccc2c(-c3ccc(CS(N)(=O)=O)cc3)ccnc2c1 [Example 406, (4-(7-methoxy quinolin-4-yl)phenyl)methane sulfonamide] | > 1000 | >65 | 100 to 1000
COc1ccc2c(-c3ccc(CNS(N)(=O)=O)cc3)ccnc2n1 [Example 63, N-(4-(7-methoxy-1,8-naphthyridin-4-yl)benzyl)sulfamide] | < 100 | 28.0 | < 100
COc1cc2nccc(N3CCC4(CC3)CCN(S(N)(=O)=O)C4)c2cc1OC [Example 160, 8-(6,7-dimethoxyquinolin-4-yl)-2,8-diazaspiro[4.5]decane-2-sulfonamide] | < 100 | 13.9 | < 100
COc1cc2nccc(Oc3cc(F)c(NS(N)(=O)=O)cc3F)c2cc1OC [Example 258, N-(4-((6,7-dimethoxyquinolin-4-yl)oxy)-2,5-difluorophenyl)sulfamide] | > 1000 | >48.1 | < 100
COc1cc2nccc(Oc3ccc(S(N)(=O)=O)cc3)c2cc1OC [Example 303, 4-((6,7-dimethoxyquinolin-4-yl)oxy)benzenesulfonamide] | 100 to 1000 | 41.6 | < 100
COc1cc2ncnc(-c3ccc4c(c3)CCN(S(N)(=O)=O)C4)c2cc1OC [Example 121, 6-(6,7-dimethoxyquinazolin-4-yl)-3,4-dihydroisoquinoline-2(1H)-sulfonamide] | > 1000 | >61.5 | < 100
COc1cc2ncc(C#N)c(N3CCC(CCNS(N)(=O)=O)CC3)c2cn1 [Example 245, N-(2-(1-(3-cyano-7-methoxy-1,6-naphthyridin-4-yl)piperidin-4-yl)ethyl)sulfamide] | > 1000 | >92.6 | 100 to 1000
COc1ccc2c(-c3ccc(CNS(N)(=O)=O)s3)ccnc2c1 [Example 389, N-((5-(7-methoxyquinolin-4-yl)thiophen-2-yl)methyl)sulfamide] | < 100 | 34 | < 100
COc1ccc2c(Oc3ccc(NS(N)(=O)=O)c(C)c3)ccnc2c1 [Example 308, N-(4-((7-methoxyquinolin-4-yl)oxy)-2-methylphenyl)sulfamide] | 100 to 1000 | 28.4 | < 100
